Results as given in patent US20250101019A1 (Insilico Medicine IP Limited, priority 2022, published 2025).
pIC50: −log10 of the molar value.

Tests used:
ENPP1 [1] = target: T1, ENPP1 (Homo sapiens (Human), UniProt P22413); experiment: cGAMP-Glo enzymatic assay (2′3′-cGAMP substrate, AMP-Glo readout); assay type: biochemical; details: substrate 2′3′-cGAMP; 25° C. for 60 min; 50 mM Tris pH 8.8
How it was run: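 Human ENPP1 incubated with compound (11-point, 3-fold series) and either ATP or 2′3′-cGAMP substrate for 60 min at 25 °C in 50 mM Tris pH 8.8, 250 mM NaCl, 0.1% BSA. AMP produced detected by AMP-Glo then kinase detection reagent, 1 h each at 25 °C, read as luminescence.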

ENPP1 [2] = target: T1, ENPP1; experiment: ATP-Glo enzymatic assay (ATP substrate, AMP-Glo readout); assay type: biochemical; details: 25° C. for 60 min, 50 mM Tris pH 8.8

T1 sequence (P22413 whole entry, species assumed): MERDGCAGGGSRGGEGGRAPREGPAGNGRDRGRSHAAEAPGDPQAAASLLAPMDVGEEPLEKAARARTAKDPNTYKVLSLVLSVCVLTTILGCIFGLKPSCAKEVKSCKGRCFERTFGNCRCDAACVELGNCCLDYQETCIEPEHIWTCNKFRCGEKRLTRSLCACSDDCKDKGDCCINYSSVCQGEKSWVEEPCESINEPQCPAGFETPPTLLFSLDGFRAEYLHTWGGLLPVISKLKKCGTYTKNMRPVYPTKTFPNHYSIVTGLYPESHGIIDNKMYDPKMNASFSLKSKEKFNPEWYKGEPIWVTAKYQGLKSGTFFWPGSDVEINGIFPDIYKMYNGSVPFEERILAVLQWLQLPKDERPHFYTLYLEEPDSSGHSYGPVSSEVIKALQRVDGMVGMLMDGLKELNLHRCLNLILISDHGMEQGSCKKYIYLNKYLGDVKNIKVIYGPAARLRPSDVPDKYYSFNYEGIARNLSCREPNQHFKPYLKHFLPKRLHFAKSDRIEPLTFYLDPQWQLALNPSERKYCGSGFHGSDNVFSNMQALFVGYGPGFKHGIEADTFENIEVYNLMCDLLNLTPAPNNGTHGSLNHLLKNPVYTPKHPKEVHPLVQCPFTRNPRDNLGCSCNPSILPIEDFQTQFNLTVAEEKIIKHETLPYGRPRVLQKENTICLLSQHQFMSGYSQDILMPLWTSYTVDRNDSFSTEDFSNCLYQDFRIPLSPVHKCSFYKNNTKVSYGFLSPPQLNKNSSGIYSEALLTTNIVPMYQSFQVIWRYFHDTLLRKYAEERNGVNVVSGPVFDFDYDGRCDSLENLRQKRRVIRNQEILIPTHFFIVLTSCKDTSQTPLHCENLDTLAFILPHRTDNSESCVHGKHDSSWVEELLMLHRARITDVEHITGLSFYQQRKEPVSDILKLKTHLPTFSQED

COc1ncc2c(c1-c1ccccc1)n(Cc1c(F)cc(S(N)(=O)=O)cc1F)c(=O)n2C [Example 56, 3,5-difluoro-4-((6-methoxy-3-methyl-2-oxo-7-phenyl-2,3-dihydro-1H-imidazo[4,5-c]pyridin-1-yl)methyl)benzenesulfonamide]
pIC50 (ENPP1 [1]): > 9.00
pIC50 (ENPP1 [2]): > 9.00
